Measurements as given in ChEMBL document CHEMBL5335868, “Exploring Scaffold Hopping for Novel 2-(Quinolin-4-yloxy)acetamides with Enhanced Antimycobacterial Activity” (ACS Med Chem Lett, 2024).
In brackets after ≈: the same amount, converted by molar mass.

Tests used:
Type in all cases: functional
[1] = system: Mycobacterium tuberculosis; assay: Antibacterial activity against multi-drug resistant Mycobacterium tuberculosis clinical isolate PT2 assessed as bacterial growth inhibition measured after 7 days by resazurin based assay; details: 168 h, time 7 day
[2] = system: Mycobacterium tuberculosis; assay: Antibacterial activity against multi-drug resistant Mycobacterium tuberculosis clinical isolate PT12 assessed as bacterial growth inhibition measured after 7 days by resazurin based assay; details: 168 h, time 7 day
[3] = system: Mycobacterium tuberculosis; assay: Antibacterial activity against multi-drug resistant Mycobacterium tuberculosis clinical isolate PT20 assessed as bacterial growth inhibition measured after 7 days by resazurin based assay; details: 168 h, time 7 day
[4] = system: Mycobacterium tuberculosis; assay: Antibacterial activity against qcrB-resistant Mycobacterium tuberculosis harbouring T313A mutant assessed as bacterial growth inhibition measured after 7 days by resazurin based assay; details: time 7 day

Row | Compound | MIC [1] [µM] | MIC [2] [µM] | MIC [3] [µM] | MIC [4] [µM]
1 | COc1ccc2nc(C)cc(OCC(=O)Nc3ccc(N4CCC(c5ccc(OC(F)(F)F)cc5)CC4)cc3)c2c1 | < 0.02 | < 0.02 | < 0.02 | >8.8
2 | Cc1cc(OCC(=O)Nc2ccc(N3CCC(c4ccccc4)CC3)cc2)c2cc(Br)ccc2n1 | < 0.02 | < 0.02 | < 0.02 | >9.4
3 | COc1ccc2nc(C)cc(OCC(=O)Nc3ccc(N4CCC(c5ccccc5)CC4)cc3)c2c1 | < 0.02 | < 0.02 | < 0.02 | >10.4
4 | Cc1cc(OCC(=O)Nc2ccc(N3CCC(c4ccccc4)CC3)cc2)c2cc(Cl)ccc2n1 | < 0.02 | < 0.02 | < 0.02 | >10.3
5 | NNC(=O)c1ccncc1 [ISONIAZID] | – | 146 (≈ 20 µg/mL) | – | 2.3 (≈ 0.315 µg/mL)
6 | CO[C@H]1/C=C/O[C@@]2(C)Oc3c(C)c(O)c4c(O)c(c(/C=N/N5CCN(C)CC5)c(O)c4c3C2=O)NC(=O)/C(C)=C\C=C\[C@H](C)[C@H](O)[C@@H](C)[C@@H](O)[C@@H](C)[C@H](OC(C)=O)[C@@H]1C [RIFAMPIN] | > 48.6 | > 48.6 | > 48.6 | –
